This is an account of results in patent US11142515B2, “Pyrazolyl-ureas as kinase inhibitors” (RESPIVERT LIMITED, priority 2014, dated 2021).

Some results are limits rather than exact numbers.

Assay [1] deals with T1, p38 MAPKα isoform (MAPK14) (Homo sapiens, UniProt Q16539).
T1 construct: purchased Life Technologies
Description: p38 MAPKα enzyme inhibition (Z-LYTE FRET). The assay is classed as biochemical. Particulars: Table 2B, unit inferred; read-out: p38 MAPKα (Enzyme Profile). The gist of the method:
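Activity was measured indirectly as phosphorylation of a MAPKAP-K2-derived FRET peptide. Enzyme (added at 40 ng/mL) was preincubated 2 h at RT with compound (added solutions 40–0.0012 μg/mL).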

The target of assay [2] is T2, p38MAPKγ (MAPK12) (Homo sapiens, UniProt P53778).
T2 construct: purchased Life Technologies
T2 sequence (P53778 1-367): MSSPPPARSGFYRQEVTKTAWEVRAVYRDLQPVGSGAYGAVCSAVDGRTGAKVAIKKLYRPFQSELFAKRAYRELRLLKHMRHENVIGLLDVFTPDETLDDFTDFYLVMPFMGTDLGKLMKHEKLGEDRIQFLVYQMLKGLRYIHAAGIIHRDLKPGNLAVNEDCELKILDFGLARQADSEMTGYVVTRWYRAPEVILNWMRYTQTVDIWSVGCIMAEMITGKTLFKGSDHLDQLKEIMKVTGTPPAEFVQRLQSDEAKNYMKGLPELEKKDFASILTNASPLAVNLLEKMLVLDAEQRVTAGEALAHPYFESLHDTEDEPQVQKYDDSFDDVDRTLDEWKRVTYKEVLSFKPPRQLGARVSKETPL
Description: p38 MAPKγ enzyme inhibition (Z-LYTE FRET). It counts as biochemical. Particulars: Table 2B, unit inferred; read-out: p38 MAPKγ (Enzyme Profile). An outline of the steps:
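Enzyme (added at 800 ng/mL) was preincubated 2 h at RT with compound (solutions of 40 to 0.0012 μg/mL), then FRET peptide (8 μM) and ATP (400 μM), both as added, were reacted 1 h at RT. Protease development followed for 1 h; phosphorylation was read as the coumarin/fluorescein emission ratio.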

T1 sequence (Q16539 whole entry, canonical isoform): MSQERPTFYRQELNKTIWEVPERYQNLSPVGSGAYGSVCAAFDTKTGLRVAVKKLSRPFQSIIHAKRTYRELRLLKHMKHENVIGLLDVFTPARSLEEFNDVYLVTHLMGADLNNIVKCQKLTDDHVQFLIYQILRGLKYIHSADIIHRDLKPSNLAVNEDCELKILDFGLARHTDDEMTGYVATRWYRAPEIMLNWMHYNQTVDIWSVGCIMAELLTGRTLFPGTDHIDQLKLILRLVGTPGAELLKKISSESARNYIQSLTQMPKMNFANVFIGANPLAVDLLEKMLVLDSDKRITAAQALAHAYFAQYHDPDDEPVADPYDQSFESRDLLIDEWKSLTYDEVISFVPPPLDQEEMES

For `Cc1cc(C)cc(-n2nc(C(C)(C)C)cc2NC(=O)Nc2ccc(OCc3ccnc(Nc4cnccn4)c3)c3ccccc23)c1` [Example 180, 1-(3-(tert-butyl)-1-(3,5-dimethylphenyl)-1H-pyrazol-5-yl)-3-(4-((2-(pyrazin-2-ylamino)pyridin-4-yl)methoxy)naphthalen-1-yl) urea], the IC50 in assay [1] is 19 nM; in assay [2] it was 112 nM.
In the same order, the values of `Cc1cc(F)cc(-n2nc(C(C)(C)C)cc2NC(=O)Nc2ccc(OCc3ccnc(Nc4cnccn4)c3)c3ccccc23)c1` [Example 181, 1-(3-(tert-butyl)-1-(3-fluoro-5-methylphenyl)-1H-pyrazol-5-yl)-3-(4-((2-(pyrazin-2-ylamino)pyridin-4-yl)methoxy)naphthalen-1-yl)urea] are 15 nM and 64 nM.
As to `Cc1ccc(-n2nc(C(C)(C)C)cc2NC(=O)Nc2ccc(OCc3ccnc(Nc4cnc(C)c(C)n4)c3)c3ccccc23)cc1F` [Example 182, 1-(3-(tert-butyl)-1-(3-fluoro-4-methylphenyl)-1H-pyrazol-5-yl)-3-(4-((2-((5,6-dimethylpyrazin-2-yl)amino)pyridin-4-yl)methoxy)naphthalen-1-yl) urea], the IC50 in assay [1] worked out at 44 nM; in assay [2] it was 1140 nM.
For `CCOc1ccc(-n2nc(C(C)(C)C)cc2NC(=O)Nc2ccc(OCc3ccnc(Nc4cnccn4)c3)c3ccccc23)cc1F` [Example 183, 1-(3-(tert-butyl)-1-(4-ethoxy-3-fluorophenyl)-1H-pyrazol-5-yl)-3-(4-((2-(pyrazin-2-ylamino)pyridin-4-yl)methoxy)naphthalen-1-yl) urea], in that order: 38 nM and over 15500 nM.
`CCOc1cccc(-n2nc(C(C)(C)C)cc2NC(=O)Nc2ccc(OCc3ccnc(Nc4cnccn4)c3)c3ccccc23)c1` [Example 184, 1-(3-(tert-butyl)-1-(3-ethoxyphenyl)-1H-pyrazol-5-yl)-3-(4-((2-(pyrazin-2-ylamino)pyridin-4-yl)methoxy)naphthalen-1-yl) urea]: the IC50 in assay [1] was 19 nM; in assay [2], over 15900 nM.
In the same order, the values of `Cc1ccc(-n2nc(C(C)(C)C)cc2NC(=O)Nc2ccc(OCc3ccnc(Nc4cnc(C(=O)N5CCC(C)CC5)cn4)c3)c3ccccc23)cc1` [Example 185, 1-(3-(tert-butyl)-1-(p-tolyl)-1H-pyrazol-5-yl)-3-(4-((2-((5-(4-methylpiperidine-1-carbonyl)pyrazin-2-yl)amino)pyridin-4-yl)methoxy)naphthalen-1-yl) urea] are 110 nM and 2510 nM.
For the compound `COCCCNC(=O)c1cnc(Nc2cc(COc3ccc(NC(=O)Nc4cc(C(C)(C)C)nn4-c4ccc(C)cc4)c4ccccc34)ccn2)cn1` [Example 186, 5-((4-(((4-(3-(3-(tert-butyl)-1-(p-tolyl)-1H-pyrazol-5-yl)ureido)naphthalen-1-yl)oxy)methyl)pyridin-2-yl)amino)-N-(3-methoxypropyl) pyrazine-2-carboxamide], the IC50 in assay [1] was 25 nM; in assay [2], over 14000 nM.
Turning to `CC(C)(C)c1cc(NC(=O)Nc2ccc(OCc3ccnc(Nc4cnccn4)c3)c3ccccc23)n(-c2ccc(F)cc2)n1` [Example 187, 1-(3-(tert-butyl)-1-(4-fluorophenyl)-1H-pyrazol-5-yl)-3-(4-((2-(pyrazin-2-ylamino)pyridin-4-yl)methoxy)naphthalen-1-yl) urea], the values for the IC50 in assay [1] and in assay [2] were 16 nM and 180 nM, respectively.
As for `COCCCc1cnc(Nc2cc(COc3ccc(NC(=O)Nc4cc(C(C)(C)C)nn4-c4ccc(C)cc4)c4ccccc34)ccn2)cn1` [Example 188, 1-(3-(tert-butyl)-1-(p-tolyl)-1H-pyrazol-5-yl)-3-(4-((2-((5-(3-methoxypropyl)pyrazin-2-yl)amino)pyridin-4-yl)methoxy)naphthalen-1-yl)urea], the values for the IC50 in assay [1] and in assay [2] were 32 nM and 442 nM, respectively.
